Experimental data taken from patent publication US10457916B2, “Method for inducing differentiation of insulin-producing cells” (TOKYO INSTITUTE OF TECHNOLOGY, priority 2014, dated 2019).

Columns and labels:
Assay type in all cases: cell-based, human
[1] = test system: differentiated cells at the end of stage 5; test: C-peptide secretion in response to glucose and insulin secretagogues (ELISA); settings: 1 hr, versus 2.5 mM glucose without secretagogues; 30 mM KCl, 100 μM tolbutamide, 2 μM Bay K8644, 0.5 mM IBMX, 250 μM carbachol
Protocol: (§1) The differentiated cells at the end of stage 5 were initially incubated at 37° C. for 30 min with DMEM (Life Technologies) containing minimal essential medium, 2.5 mM glucose and 1% B27 Supplement Xeno-Free CTS. This initial incubation was regarded as washing. Subsequently, the medium was discarded and then the cells were incubated with DMEM (100 μl per well) containing 2.5 mM glucose at 37° for 1 hr. After collecting the supernatant, the same cells were further cultured for 1 hr in 20 mM glucose-containing DMEM or 2.5 mM glucose-containing DMEM supplemented with various stimulants, e.g., 2 μM (−)-Bay K8644 (Sigma-Aldrich), 100 μM tolbutamide (Wako), 250 μM carbachol (Sigma-Aldrich), 0.5 mM IBMX or 30 mM potassium chloride (KCl) (Wako). The supernatant was collected again and stored at −20° C. until analysis. Finally, the cells were lysed with 0.01% Triton X-100 in PBS containing 1% protease inhibitor cocktail (Nacalai Tesque). Intracellular C-peptide and protein levels were quantitatively determined. C-peptide level was measured using a human C-peptide ELISA kit (ALPCO Diagnostics) according to the manufacturer's instructions. The total protein in cell lysate was quantitatively determined using a Bio-Rad reagent kit (Bio-Rad). The amount of C-peptide was normalized against the corresponding amount of the total protein.

[2] = test system: endocrine progenitor cells; test: Intracellular C-peptide content of cells differentiated at stage 5 (ELISA); settings: differentiated cells at the end of stage 5
Protocol: (§2) To this medium were added 50 ng/ml exendin-4 (Ex-4; Cell Sciences), 10 mM nicotinamide (NA; Sigma-Aldrich), and/or 100 μM 3-isobutyl-1-methylxanthine (IBMX; phosphodiesterase inhibitor; Wako), and/or 10 μM forskolin (FRKL; adenylate cyclase activator; Wako). The media were changed every two days.
as §1, with “The supernatant was collected again and stored at −20° C. until analysis. Finally, the cells were lysed with 0.01% Triton X-100 in PBS containing 1% protease inhibitor cocktail (Nacalai Tesque).” left out, “The amount of C-peptide was normalized against the corresponding amount of the total protein.” left out

[3] = test system: endocrine progenitor cells; test: Stage 5 differentiation into endocrine cells, immunocytochemistry; settings: for proportion of PDX1-positive/CP-negative cells / proportion of CP single-positive cells: end of stage 5; for proportion of CP single-positive cells: added to basal medium with exendin-4 and nicotinamide
Protocol: as §2

[4] = test system: endocrine progenitor cells; test: Stage 5 differentiation into endocrine cells, quantitative RT-PCR
Protocol: as §2

PG cells [5] = test: Stage 3 differentiation into pancreatic progenitor cells, quantitative RT-PCR; settings: higher concentrations of NOGGIN at stage 3, versus Nog 100
Text: (§3) The medium was changed every two days.

PG cells [6] = test: Stage 3 differentiation into pancreatic progenitor cells, immunocytochemistry
Text: as §3

[7] = 200 ng/ml NOGGIN in stage-3 media
[8] = 200 ng/ml NOGGIN in stage-3 media with RA, KAAD-cyclopamine, SB431542

Molecule: C[N+](C)(C)CCOC(N)=O [carbachol]
- increase of C-peptide secretion [1]: approximately 7.0 fold

Molecule: C=C[C@@]1(C)CC(=O)[C@]2(O)[C@@]3(C)[C@@H](O)CCC(C)(C)[C@@H]3[C@H](O)[C@H](OC(C)=O)[C@@]2(C)O1 [FRKL, forskolin]
- intracellular C-peptide contents [2]: approximately 62 ng/mg protein
- proportion of PDX1-positive/CP-negative cells [3]: approximately 27%
- proportion of CP single-positive cells [3]: 5.6-6.4%

Molecule: COC(=O)C1=C(C)NC(C)=C([N+](=O)[O-])C1c1ccccc1C(F)(F)F (single isomer, unassigned; (-)) [(−) BAY K8644]
- increase of C-peptide secretion [1]: approximately 4.9 fold

Molecule: CC(C)Cn1c(=O)n(C)c(=O)c2[nH]cnc21 [IBMX, 3-isobutyl-1-methylxanthine]
- expression levels of β-cell specific genes ([4]; IBMX-induced cells versus FRKL-induced cells): relatively higher
- INS expression ([4]; added to basal medium (DMEM/F12, 1% B27, exendin-4 and nicotinamide) at stage 5, versus DMSO): significantly upregulated
- expression levels of β-cell maturity genes (PDX1, NKX6.1, MAF-A, ISL-1, UCN3, GCK, IAPP, SLC30A8) ([4]; end of stage 5, versus DMSO-induced cells): remarkably higher
- increase of C-peptide secretion [1]: approximately 4.9 fold
- intracellular C-peptide contents [2]: approximately 66 ng/mg protein
- proportion of PDX1-positive/CP-negative cells [3]: approximately 22%
- proportion of CP single-positive cells [3]: 6.5-6.7%

Molecule: CCCCNC(=O)NS(=O)(=O)c1ccc(C)cc1 [tolbutamide]
- increase of C-peptide secretion [1]: approximately 3.0 fold

Molecule: [Cl-].[K+] [KCl, potassium chloride]
- increase of C-peptide secretion [1]: approximately 8.3 fold

B1: NOGGIN: recombinant human NOGGIN, BMP signaling inhibitor (R&D Systems) (protein, UniProt Q13253 28-232, looked up)
Noggin: QHYLHIRPAPSDNLPLVDLIEHPDPIFDPKEKDLNETLLRSLLGGHYDPGFMATSPPEDRPGGGGGAAGGAEDLAELDQLLRQRPSGAMPSEIKGLEFSEGLAQGKKQRLSKKLRRKLQMWLWSQTFCPVLYAWNDLGSRFWPRYVKVGSCFSKRSCSVPEGMVCKPSKSVHLTVLRWRCQRRGGQRCGWIPIQYPIISECKCSC
- expression level of early-stage pancreatic dorsal bud gene HLXB9 (PG cells [5]): remarkably upregulated
- expression levels of PDX-1 and posterior foregut genes HNF6 and NKX6.1 (PG cells [5]): remarkably upregulated
- gene expression levels of CDX2 and AFP (PG cells [5]): remarkably reduced
- proportion of EC cells ([3]; NOGGIN at 200 ng/ml compared to 100 ng/ml at stages 3 and 4): higher proportion
- AFP-positive hepatic cells and CDX2-positive intestinal progenitor cells appearing (PG cells [6]; 100 ng/ml NOGGIN at stage 3): considerable proportion
- AFP-positive cells in the total DAPI-positive cells (PG cells [6]; [7]): 4%
- CDX2-positive cells in the total DAPI-positive cells (PG cells [6]; [7]): 8%
- PDX1-positive cells co-expressing HNF-6 (PG cells [6]; [8]): about 62%
- PDX1-positive cells co-expressing SOX9 (PG cells [6]; [8]): about 59%
- numbers of AFP-positive hepatic cells and CDX2-positive intestinal progenitor cells (PG cells [6]; 200-300 ng/ml NOGGIN at stage 3, versus 100 ng/ml): remarkably reduced
